# Laboratory results taken from patent publication US20020019527A1 (priority 2000, published 2002).
# Counter-ions that a name gives are not always drawn.
# Target: T1, Farnesyltransferase (FTase) (Bos taurus, UniProt P29702+P49355)
# T1 construct: precipitation from a beef brain homogenate; from tissue; host or cells: bovine brain
# Assay: Farnesyltransferase inhibition (scintillation proximity assay, [3H]-FPP / biotin-K-ras peptide)
# Type: biochemical, bovine
# Conditions: not given
# Experimental: Farnesyltransferase (FTase) or geranylgeranyltransferase I (GGTase I) fractions were isolated from bovine brains and purified by a series of methods which separate FTase from GGTase I and GGTase I from GGTase II. The methods involved a partial purification of all three enzymes by precipitation from a beef brain homogenate with 30% to 50% saturated […] followed by chromatography on DEAE Sepharose. […] The catalytic purity of each enzyme was assayed separately with substrate acceptor proteins specific for that enzyme. After quickly freezing in liquid nitrogen, the various prenyl transferases were stored at −80° C.
# The quenched reactions stood for 1 hour before analysis in a Packard TopCount scintillation counter. Purified compounds were dissolved in 100% ethanol and diluted 10-fold into the assay.
# T1 sequence (P49355 whole entry, one chain of several): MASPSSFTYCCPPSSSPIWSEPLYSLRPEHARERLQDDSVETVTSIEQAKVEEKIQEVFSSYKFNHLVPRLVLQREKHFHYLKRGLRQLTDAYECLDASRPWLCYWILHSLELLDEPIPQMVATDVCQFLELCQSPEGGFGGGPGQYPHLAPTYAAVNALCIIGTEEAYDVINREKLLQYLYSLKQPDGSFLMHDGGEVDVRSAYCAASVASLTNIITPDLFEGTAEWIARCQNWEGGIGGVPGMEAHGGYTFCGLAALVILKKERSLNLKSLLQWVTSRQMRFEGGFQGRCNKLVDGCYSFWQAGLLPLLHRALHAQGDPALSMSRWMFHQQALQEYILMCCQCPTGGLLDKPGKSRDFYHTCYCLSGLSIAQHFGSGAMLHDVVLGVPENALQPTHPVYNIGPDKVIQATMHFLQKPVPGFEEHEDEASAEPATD
row,Compound,% Inhibition at 10^−6M [%]
1,Cc1ccccc1-c1cc(C(OCc2ccc([N+](=O)[O-])cc2)c2cncn2C)ccc1C#N.Cl (stereo not drawn) [Example 121],96
2,Cc1ccccc1-c1cc(C(OCc2cccc(C(F)(F)F)c2)c2cncn2C)ccc1C#N.Cl (stereo not drawn) [Example 123],97
3,Cc1ccc(COC(c2ccc(C#N)c(-c3ccccc3C)c2)c2cncn2C)cc1.Cl (stereo not drawn) [Example 127],93
4,Cc1cccc(COC(c2ccc(C#N)c(-c3ccccc3C)c2)c2cncn2C)c1.Cl (stereo not drawn) [Example 128],94

# Same assay, conditions: compound at 10^−6 M; bovine FTase, 37° C., 30 minutes
Compound,inhibition at 1 µM [%],% Inhibition at 10^−6M [%]
"Cl.Cl.Cn1cncc1C(OCc1cc(Cl)nc(Cl)c1)c1ccc(C#N)c(-c2cccc3ccccc23)c1 (stereo not drawn) [Example 74, 4-(((2,6-dichloro-4-pyridinyl)methoxy)(1-methyl-1H-imidazol-5-yl)methy)-2-(1-naphthyl)benzonitrile dihydrochloride]",,100
"Cn1cncc1C(OCc1ccc(C#N)c(Br)c1)c1ccc(C#N)c(-c2cccc3ccccc23)c1 (stereo not drawn) [Example 75, 4-(((3-bromo-4-cyanobenzyl)oxy)(1-methyl-1H-imidazol-5-yl)methyl)-2-(1-naphthyl)benzonitrile hydrochloride]",100,
"Cn1cncc1C(OCc1ccc(C#N)c(F)c1)c1ccc(C#N)c(-c2cccc3ccccc23)c1 (stereo not drawn) [Example 77, 4-(((4-cyano-3-fluorobenzyl)oxy)(1-methyl-1H-imidazol-5-yl)methyl)-2-(1-naphthyl)benzonitrile hydrochloride]",100,
"Cc1ccccc1-c1cc(C(OCc2ccccc2)c2ccsc2)ccc1C#N (stereo not drawn) [Example 80, 5-((benzyloxy)(3-thienyl)methyl)-2′-methyl(1,1′-biphenyl)-2-carbonitrile]",12,
"Cc1ccccc1-c1cc(C(OCc2ccccc2)c2cnnn2C)ccc1C#N (stereo not drawn) [Example 81, 5-((benzyloxy)(1-methyl-1H-1,2,3-triazol-5-yl)methyl)-2′-methyl(1,1′-biphenyl)-2-carbonitrile hydrochloride]",14,
"Cc1ccccc1-c1cc(CN(CCC2CCCCC2)Cc2cncn2C)ccc1C#N [Example 82, 5-(((2-cyclohexylethyl)((1-methyl-1H-imidazol-5-yl)methyl)amino)methyl)-2′-methyl(1,1′-biphenyl)-2-carbonitrile hydrochloride]",87,
"N#Cc1ccc(CN(CCC2CCCCC2)C(=O)Cn2ccnc2)cc1-c1cccc2ccccc12 [Example 85, N-(4-cyano-3-(1-naphthyl)benzyl)-N-(2-cyclohexylethyl)-2-(1H-imidazol-1-yl)acetamide]",46,
"Cc1ccccc1-c1cc(C(O)c2cncn2C)ccc1C#N (stereo not drawn) [Example 86, 5-(hydroxy(1-methyl-1H-imidazol-5-yl)methyl)-2′-methyl(1,1′-biphenyl)-2-carbonitrile]",86,
"Cn1cncc1C(OCc1ccccc1)c1ccc(C#N)c(-c2ccccc2)c1 (stereo not drawn) [Example 87, 5-((benzyloxy)(1-methyl-1H-imidazol-5-yl)methyl)(1,1′-biphenyl)-2-carbonitrile hydrochloride]",89,
"Cn1cncc1C(OCc1ccccc1)c1ccc(C#N)c(-c2ccsc2)c1 (stereo not drawn) [Example 90, 4-((benzyloxy)(1-methyl-1H-imidazol-5-yl)methyl)-2-(3-thienyl)benzonitrile hydrochloride]",90,
"Cc1cccc(-c2cc(C(OCc3ccccc3)c3cncn3C)ccc2C#N)c1 (stereo not drawn) [Example 91, 5-((benzyloxy)(1-methyl-1H-imidazol-5-yl)methyl)-3′-methyl(1,1′-biphenyl)-2-carbonitrile hydrochloride]",94,
"Cn1cncc1C(OCc1ccccc1)c1ccc(C#N)c(-c2ccc3ccccc3c2)c1 (stereo not drawn) [Example 92, 4-((benzyloxy)(1-methyl-1H-imidazol-5-yl)methyl)-2-(2-naphthyl)benzonitrile hydrochloride]",53,
"Cc1ccc(-c2cc(C(OCc3ccccc3)c3cncn3C)ccc2C#N)cc1 (stereo not drawn) [Example 93, 5-((benzyloxy)(1-methyl-1H-imidazol-5-yl)methyl)-4′-methyl(1,1′-biphenyl)-2-carbonitrile hydrochloride]",58,
"Cn1cncc1C(OCc1ccccc1)c1ccc(C#N)c(C2CCCCC2)c1 (stereo not drawn) [Example 100, 4-((benzyloxy)(1-methyl-1H-imidazol-5-yl)methyl)-2-cyclohexylbenzonitrile hydrochloride]",83,
"CCOCn1cncc1C(OCc1ccccc1)c1ccc(C#N)c(-c2cccc3ccccc23)c1 (stereo not drawn) [Example 105, 4-((benzyloxy)(1-(ethoxymethyl)-1H-imidazol-5-yl)methyl)-2-(1-naphthyl)benzonitrile hydrochloride]",82,
"Cc1ccccc1-c1cc(C(O)(C#Cc2ccccc2)c2cncn2C)ccc1C#N (stereo not drawn) [Example 109, 5-(1-hydroxy-1-(1-methyl-1H-imidazol-5-yl)-3-phenyl-2-propynyl)-2′-methyl(1,1′-biphenyl)-2-carbonitrile]",100,
"Cc1ccccc1-c1cc(C(O)(CCc2ccccc2)c2cncn2C)ccc1C#N (stereo not drawn) [Example 110, 5-(1-hydroxy-1-(1-methyl-1H-imidazol-5-yl)-3-phenylpropyl)-2′-methyl(1,1′-biphenyl)-2-carbonitrile]",96,
"Cn1cncc1C(O)(C#Cc1ccccc1)c1ccc(C#N)c(-c2cccc3ccccc23)c1 (stereo not drawn) [Example 111, 4-(1-hydroxy-1-(1-methyl-1H-imidazol-5-yl)-3-phenyl-2-propynyl)-2-(1-naphthyl)benzonitrile]",100,
"Cn1cncc1C(OCc1ccc(C#N)cc1)c1ccc(F)c(-c2cccc3ccccc23)c1 (stereo not drawn) [Example 112, 4-(((4-fluoro-3-(1-naphthyl)phenyl)(1-methyl-1H-imidazol-5-yl)methoxy)methyl)benzonitrile para-toluenesulfonic acid salt]",100,
"Cn1cncc1CN(Cc1ccc(C#N)cc1)Cc1ccc(C#N)c(-c2cccc3cccnc23)c1 [Example 114, 4-(((4-cyanobenzyl)((1-methyl-1H-imidazol-5-yl)methyl)amino)methyl)-2-(8-quinolinyl)benzonitrile]",99,
"COc1ccc([N+](=O)[O-])cc1COC(c1ccc(C#N)c(-c2ccccc2C)c1)c1cncn1C (stereo not drawn) [Example 122, 5-(((2-methoxy-5-nitrobenzyl)oxy)(1-methyl-1H-imidazol-5-yl)methyl)-2′-methyl(1,1′-biphenyl)-2-carbonitrile hydrochloride]",94,

# The next lines start with results.
inhibition at 1 µM [%],Compound,% Inhibition at 10^−6M [%]
90,"Cc1ccccc1-c1cc(C(OCc2cccc(C#N)c2)c2cncn2C)ccc1C#N (stereo not drawn) [Example 113, 5-(((3-cyanobenzyl)oxy)(1-methyl-1H-imidazol-5-yl)methyl)-2′-methyl(1,1′-biphenyl)-2-carbonitrile hydrochloride]",
89,"Cc1ccccc1-c1cc(C(OCc2ccc(C(C)(C)C)cc2)c2cncn2C)ccc1C#N (stereo not drawn) [Example 115, 5-(((4-(tert-butyl)benzyl)oxy)(1-methyl-1H-imidazol-5-yl)methyl)-2′-methyl(1,1′-biphenyl)-2-carbonitrile hydrochloride]",
99,"Cc1ccccc1-c1cc(C(OCc2ccc(C#N)cc2)c2cncn2C)ccc1C#N (stereo not drawn) [Example 116, 5-(((4-cyanobenzyl)oxy)(1-methyl-1H-imidazol-5-yl)methyl)-2′-methyl(1,1′-biphenyl)-2-carbonitrile hydrochloride]",
90,"Cc1ccccc1-c1cc(C(OCc2cccc(I)c2)c2cncn2C)ccc1C#N (stereo not drawn) [Example 117, 5-(((3-iodobenzyl)oxy)(1-methyl-1H-imidazol-5-yl)methyl)-2′-methyl(1,1′-biphenyl)-2-carbonitrile hydrochloride]",
90,"Cc1ccccc1-c1cc(C(OCc2ccc(F)cc2)c2cncn2C)ccc1C#N (stereo not drawn) [Example 118, 5-(((4-fluorobenzyl)oxy)(1-methyl-1H-imidazol-5-yl)methyl)-2′-methyl(1,1′-biphenyl)-2-carbonitrile hydrochloride]",
93,"Cc1ccccc1-c1cc(C(OCc2ccc(Br)cc2)c2cncn2C)ccc1C#N (stereo not drawn) [Example 119, 5-(((4-bromobenzyl)oxy)(1-methyl-1H-imidazol-5-yl)methyl)-2′-methyl(1,1′-biphenyl)-2-carbonitrile hydrochloride]",
90,"Cc1ccccc1-c1cc(C(OCc2cccc(Cl)c2)c2cncn2C)ccc1C#N (stereo not drawn) [Example 120, 5-(((3-chlorobenzyl)oxy)(1-methyl-1H-imidazol-5-yl)methyl)-2′-methyl(1,1′-biphenyl)-2-carbonitrile hydrochloride]",
90,"Cc1ccccc1-c1cc(C(OCc2c(Cl)cccc2Cl)c2cncn2C)ccc1C#N (stereo not drawn) [Example 124, 5-(((2,6-dichlorobenzyl)oxy)(1-methyl-1H-imidazol-5-yl)methyl)-2′-methyl(1,1′-biphenyl)-2-carbonitrile hydrochloride]",
97,"Cc1ccccc1-c1cc(C(OCc2ccc(Cl)c(Cl)c2)c2cncn2C)ccc1C#N (stereo not drawn) [Example 125, 5-(((3,4-dichlorobenzyl)oxy)(1-methyl-1H-imidazol-5-yl)methyl)-2′-methyl(1,1′-biphenyl)-2-carbonitrile hydrochloride]",
92,"Cc1ccccc1-c1cc(C(OCc2ccccc2C#N)c2cncn2C)ccc1C#N (stereo not drawn) [Example 126, 5-(((2-cyanobenzyl)oxy)(1-methyl-1H-imidazol-5-yl)methyl)-2′-methyl(1,1′-biphenyl)-2-carbonitrile hydrochloride]",
93,"Cc1ccccc1-c1cc(C(OCc2cc(F)ccc2F)c2cncn2C)ccc1C#N (stereo not drawn) [Example 129, 5-(((2,5-difluorobenzyl)oxy)(1-methyl-1H-imidazol-5-yl)methyl)-2′-methyl(1,1′-biphenyl)-2-carbonitrile hydrochloride]",
